According to patent publication US10800791B2, “Triazole ACC inhibitors and uses thereof” (Gilead Apollo, LLC, priority 2015, dated 2020):
Converted amounts (≈) assume the structure as drawn. Where two headings read alike, the source gives them in different places.

Key:
human (hACC2) = human (hACC2) (Homo sapiens, UniProt O00763); test: In vitro ACC inhibition assay (ADP-Glo), hACC2; format: biochemical; details: 5 nM ACC2, 20 μM ATP, 20 μM acetyl-CoA
Experimental: The detailed procedure is as follows. […] 10 μL ADP glo reagent was added. […] 20 μL kinase detection reagent was added.

C. krusei = test: Antifungal Activity Assay (broth microtiter MIC), C. krusei; format: cell-based, Candida krusei; details: Pichia kudriavzevii, ATCC6258, 48 h
Summary of the method: (§1)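 MIC read by eye at 48 h, comparing challenged wells with the growth control. Yeasts grown overnight on Sabouraud dextrose agar at 35° C, suspended in RPMI 1640+MOPS and added at 2.5×10^3 CFU/mL final, following CLSI M27-A3.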

C. parapsilosis = test: Antifungal Activity Assay (broth microtiter MIC), C. parapsilosis; format: cell-based, Candida parapsilosis; details: Lodderomyces parapsilosis, ATCC22019, 48 h
Summary of the method: as §1

[1] = test system: Collectotrichum graminicola (Cg); test: Growth inhibition assay of fungal pathogens, Cg; format: cell-based; details: 48 h
Summary of the method: (§2)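 Spores from sub-cultured plates were diluted in 17% V8 liquid medium and exposed to compound from DMSO stocks at final concentrations of 50, 10 and 2 ppm or 2, 0.4 and 0.08 ppm. OD600 and visual ratings at 48 h were compared with the 2% DMSO control to give percent growth inhibition.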

[2] = test system: Fusarium moniliforme (Fm); test: Growth inhibition assay of fungal pathogens, Fm; format: cell-based; details: for IC90: Fusarium verticillioides, 48 h, read-out: Concentration at 90% Inhibition Fm
Summary of the method: as §2

[3] = test system: Fusarium virguliforme (Fv); test: Growth inhibition assay of fungal pathogens, Fv; format: cell-based; details: 48 h
Summary of the method: as §2

[4] = test system: Phytophthora capsici (Pc); test: Growth inhibition assay of fungal pathogens, Pc; format: cell-based; details: 48 h
Summary of the method: as §2

Rhizoctonia solani (Rs) = test: Growth inhibition assay of fungal pathogens, Rs; format: cell-based; details: 48 h
Septoria tritici (St) = test: Growth inhibition assay of fungal pathogens, St; format: cell-based; details: Zymoseptoria tritici, 48 h
Summary of the method: as §2

[5] = Fusarium moniliforme, growth inhibition at 48 hours vs 2% DMSO control
[6] = Table 3a, ATCC 6258, 3 replicates, MIC recorded at 48 h, read-out: MIC, C. krusei ATCC 6258
[7] = Table 3b (additional results), ATCC 6258, 3 replicates, MIC recorded at 48 h, read-out: MIC, C. krusei ATCC 6258
[8] = Table 3a, ATCC 22019, 3 replicates, MIC recorded at 48 h, read-out: MIC, C. parapsilosis ATCC 22019
[9] = Table 3b (additional results), ATCC 22019, 3 replicates, MIC recorded at 48 h, read-out: MIC, C. parapsilosis ATCC 22019
[10] = Collectotrichum graminicola, growth inhibition at 48 hours vs 2% DMSO control, read-out: Concentration at 90% Inhibition Cg
[11] = Collectotrichum graminicola, growth inhibition vs 2% DMSO control at 48 hours, read-out: Concentration at 90% Inhibition Cg
[12] = Fusarium moniliforme, growth inhibition vs 2% DMSO control at 48 hours
[13] = growth inhibition at 48 hours vs 2% DMSO control, read-out: Concentration at 90% Inhibition Fv
[14] = growth inhibition vs 2% DMSO control at 48 hours, read-out: Concentration at 90% Inhibition Fv
[15] = growth inhibition at 48 hours vs 2% DMSO control, read-out: Concentration at 90% Inhibition Pc
[16] = growth inhibition vs 2% DMSO control at 48 hours, read-out: Concentration at 90% Inhibition Pc
[17] = mycelial plugs, growth inhibition at 48 hours vs 2% DMSO control, read-out: Concentration at 90% Inhibition Rs
[18] = mycelial plugs, growth inhibition vs 2% DMSO control at 48 hours, read-out: Concentration at 90% Inhibition Rs
[19] = Septoria tritici, growth inhibition at 48 hours vs 2% DMSO control, read-out: Concentration at 90% Inhibition St
[20] = Septoria tritici, growth inhibition vs 2% DMSO control at 48 hours, read-out: Concentration at 90% Inhibition St

Sequence of human (hACC2) (O00763 whole entry): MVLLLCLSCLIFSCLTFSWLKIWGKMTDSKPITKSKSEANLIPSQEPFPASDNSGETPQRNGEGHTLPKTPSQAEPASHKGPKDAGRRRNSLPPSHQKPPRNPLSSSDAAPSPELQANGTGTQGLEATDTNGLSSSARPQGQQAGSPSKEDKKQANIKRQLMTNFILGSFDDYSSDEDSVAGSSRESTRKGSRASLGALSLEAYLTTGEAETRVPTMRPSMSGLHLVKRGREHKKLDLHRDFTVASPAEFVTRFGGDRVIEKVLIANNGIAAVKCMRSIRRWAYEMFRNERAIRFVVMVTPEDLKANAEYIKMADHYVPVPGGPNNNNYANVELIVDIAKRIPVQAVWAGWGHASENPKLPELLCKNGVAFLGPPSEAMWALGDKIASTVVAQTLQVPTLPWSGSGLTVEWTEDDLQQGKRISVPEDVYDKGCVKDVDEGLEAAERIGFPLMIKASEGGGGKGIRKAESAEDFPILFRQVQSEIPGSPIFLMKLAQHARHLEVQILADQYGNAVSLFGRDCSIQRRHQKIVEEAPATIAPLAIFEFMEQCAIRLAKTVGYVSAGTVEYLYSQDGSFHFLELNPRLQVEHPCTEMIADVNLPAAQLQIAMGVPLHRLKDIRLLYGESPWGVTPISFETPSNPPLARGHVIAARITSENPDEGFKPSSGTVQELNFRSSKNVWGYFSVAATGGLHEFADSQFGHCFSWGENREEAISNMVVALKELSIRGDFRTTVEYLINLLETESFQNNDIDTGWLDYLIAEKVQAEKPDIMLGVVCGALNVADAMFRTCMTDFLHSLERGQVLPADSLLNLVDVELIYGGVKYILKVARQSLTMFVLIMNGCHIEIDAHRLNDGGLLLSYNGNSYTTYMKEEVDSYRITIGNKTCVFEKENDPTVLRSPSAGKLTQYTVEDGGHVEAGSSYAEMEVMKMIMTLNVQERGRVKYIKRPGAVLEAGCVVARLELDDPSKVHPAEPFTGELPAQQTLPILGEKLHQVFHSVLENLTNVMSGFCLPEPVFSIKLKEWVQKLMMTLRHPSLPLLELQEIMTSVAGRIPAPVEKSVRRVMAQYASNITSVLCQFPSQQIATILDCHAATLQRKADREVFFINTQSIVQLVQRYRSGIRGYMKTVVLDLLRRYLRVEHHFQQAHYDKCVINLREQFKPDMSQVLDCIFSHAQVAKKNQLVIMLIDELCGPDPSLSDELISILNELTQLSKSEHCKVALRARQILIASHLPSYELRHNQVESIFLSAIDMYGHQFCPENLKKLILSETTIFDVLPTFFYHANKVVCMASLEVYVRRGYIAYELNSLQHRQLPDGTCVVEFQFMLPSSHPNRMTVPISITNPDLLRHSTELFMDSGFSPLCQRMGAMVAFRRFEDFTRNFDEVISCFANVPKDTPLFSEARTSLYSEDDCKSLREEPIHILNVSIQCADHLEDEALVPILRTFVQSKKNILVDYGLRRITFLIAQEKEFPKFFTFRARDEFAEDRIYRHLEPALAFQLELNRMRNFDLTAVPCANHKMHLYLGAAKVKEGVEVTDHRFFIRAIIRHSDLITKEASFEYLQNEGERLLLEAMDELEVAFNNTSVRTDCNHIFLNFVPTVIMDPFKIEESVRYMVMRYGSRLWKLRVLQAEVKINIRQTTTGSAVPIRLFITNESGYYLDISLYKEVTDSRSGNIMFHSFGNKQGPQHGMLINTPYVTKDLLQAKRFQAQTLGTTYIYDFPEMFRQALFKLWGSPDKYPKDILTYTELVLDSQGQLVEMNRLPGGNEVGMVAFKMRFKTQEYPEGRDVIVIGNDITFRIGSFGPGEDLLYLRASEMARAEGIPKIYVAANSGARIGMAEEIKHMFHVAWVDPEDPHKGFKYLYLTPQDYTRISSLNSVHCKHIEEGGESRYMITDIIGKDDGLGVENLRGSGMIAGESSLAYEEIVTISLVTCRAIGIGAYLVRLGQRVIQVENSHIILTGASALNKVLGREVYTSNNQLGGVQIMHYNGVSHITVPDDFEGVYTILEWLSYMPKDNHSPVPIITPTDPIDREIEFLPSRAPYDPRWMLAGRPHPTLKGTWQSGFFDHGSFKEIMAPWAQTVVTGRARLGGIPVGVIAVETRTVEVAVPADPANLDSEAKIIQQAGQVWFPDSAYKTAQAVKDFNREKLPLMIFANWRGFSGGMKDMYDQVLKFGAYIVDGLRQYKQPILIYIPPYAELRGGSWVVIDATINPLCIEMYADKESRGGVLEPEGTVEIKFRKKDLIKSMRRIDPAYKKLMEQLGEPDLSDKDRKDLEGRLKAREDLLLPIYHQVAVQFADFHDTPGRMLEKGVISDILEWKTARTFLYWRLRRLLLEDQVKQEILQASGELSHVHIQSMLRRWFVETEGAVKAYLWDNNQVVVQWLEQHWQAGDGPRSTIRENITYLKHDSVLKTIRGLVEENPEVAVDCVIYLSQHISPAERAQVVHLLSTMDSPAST

Work on COc1ccc(F)cc1[C@H](Cn1c(=O)n(C(C)(C)C(=O)N2CCCCC2)c(=O)c2c(C)c(-n3nccn3)sc21)OC(C)C [Compound I-6, (R)-1-(2-(5-fluoro-2-methoxyphenyl)-2-isopropoxyethyl)-5-methyl-3-(2-methyl-1-oxo-1-(piperidin-1-yl)propan-2-yl)-6-(2H-1,2,3-triazol-2-yl)thieno[2,3-d]pyrimidine-2,4(1H,3H)-dione] yielded an IC50 (human (hACC2); Table 2a) of 10 to 40 nM, an IC50 (human (hACC2); Table 2b, additional results) of 10 to 40 nM and an MIC (C. krusei; read-out: MIC, C. krusei ATCC 6258, Table 3a, 3 replicates, MIC recorded at 48 h) of 0.25 to 1 µg/mL (≈ 0.408 to 1.63 µM). The MIC (C. krusei; read-out: MIC, C. krusei ATCC 6258, Table 3b (additional results), 3 replicates, MIC recorded at 48 h) was 0.25 to 1 µg/mL (≈ 0.408 to 1.63 µM), the MIC (C. parapsilosis; read-out: MIC, C. parapsilosis ATCC 22019, Table 3a, 3 replicates, MIC recorded at 48 h) was 1.1 to 2 µg/mL (≈ 1.8 to 3.26 µM) and the MIC (C. parapsilosis; read-out: MIC, C. parapsilosis ATCC 22019, Table 3b (additional results), 3 replicates, MIC recorded at 48 h) was 1.01 to 2 µg/mL (≈ 1.65 to 3.26 µM). For the same compound, the IC90 ([1]; read-out: Concentration at 90% Inhibition Cg, Collectotrichum graminicola, growth inhibition at 48 hours vs 2% DMSO control) was 0.08 µg/mL (≈ 0.131 µM), the IC90 ([1]; read-out: Concentration at 90% Inhibition Cg, Collectotrichum graminicola, growth inhibition vs 2% DMSO control at 48 hours) was 0.08 µg/mL (≈ 0.131 µM) and the “Concentration at 90% Inhibition Fm” value [2, 5] was “AA (compound concentration of 0.08 ppm at 90% inhibition of fungal pathogens)”. For the same compound, the IC90 [2] was 0.08 µg/mL (≈ 0.131 µM), the IC90 ([3]; read-out: Concentration at 90% Inhibition Fv, Fusarium virguliforme, growth inhibition at 48 hours vs 2% DMSO control) was 0.08 µg/mL (≈ 0.131 µM) and the IC90 ([3]; read-out: Concentration at 90% Inhibition Fv, Fusarium virguliforme, growth inhibition vs 2% DMSO control at 48 hours) was 0.08 µg/mL (≈ 0.131 µM). The IC90 ([4]; read-out: Concentration at 90% Inhibition Pc, Phytophthora capsici, growth inhibition at 48 hours vs 2% DMSO control) was greater than 50 µg/mL, the IC90 ([4]; read-out: Concentration at 90% Inhibition Pc, Phytophthora capsici, growth inhibition vs 2% DMSO control at 48 hours) was greater than 50 µg/mL and the IC90 (Rhizoctonia solani (Rs); read-out: Concentration at 90% Inhibition Rs, Rhizoctonia solani, mycelial plugs, growth inhibition at 48 hours vs 2% DMSO control) was 0.08 µg/mL (≈ 0.131 µM). It also gave an IC90 (Rhizoctonia solani (Rs); read-out: Concentration at 90% Inhibition Rs, Rhizoctonia solani, mycelial plugs, growth inhibition vs 2% DMSO control at 48 hours) of 0.08 µg/mL (≈ 0.131 µM), an IC90 (Septoria tritici (St); read-out: Concentration at 90% Inhibition St, Septoria tritici, growth inhibition at 48 hours vs 2% DMSO control) of 2 µg/mL (≈ 3.26 µM) and an IC90 (Septoria tritici (St); read-out: Concentration at 90% Inhibition St, Septoria tritici, growth inhibition vs 2% DMSO control at 48 hours) of 10 µg/mL (≈ 16.3 µM).

COc1ccc(F)cc1[C@H](Cn1c(=O)n(C(C)(C)C(=O)N2CCCC2)c(=O)c2c(C)c(-n3nccn3)sc21)OC1CCC(=O)CC1 [Compound I-33, (R)-1-(2-(5-fluoro-2-methoxyphenyl)-2-((4-oxocyclo-hexyl)oxy)ethyl)-5-methyl-3-(2-methyl-1-oxo-1-(pyrrolidin-1-yl)propan-2-yl)-6-(2H-1,2,3-triazol-2-yl)thieno[2,3-d]pyrimidine-2,4(1H,3H)-dione] gave an IC50 (human (hACC2); Table 2a) of 10 to 40 nM, an IC50 (human (hACC2); Table 2b, additional results) of 10 to 40 nM and an MIC (C. krusei; [6]) of 0.25 to 1 µg/mL (≈ 0.383 to 1.53 µM). It also gave an MIC (C. krusei; [7]) of 0.25 to 1 µg/mL (≈ 0.383 to 1.53 µM), an MIC (C. parapsilosis; [8]) of 0.25 to 1 µg/mL (≈ 0.383 to 1.53 µM) and an MIC (C. parapsilosis; [9]) of 1.01 to 2 µg/mL (≈ 1.55 to 3.06 µM). It also gave an IC90 [1, 10] of 0.4 µg/mL (≈ 0.613 µM), an IC90 [1, 11] of 0.4 µg/mL (≈ 0.613 µM) and an IC90 [2, 5] of 0.08 µg/mL (≈ 0.123 µM). The IC90 [2, 12] was 0.08 µg/mL (≈ 0.123 µM), the IC90 [3, 13] was 0.4 µg/mL (≈ 0.613 µM) and the IC90 [3, 14] was 0.4 µg/mL (≈ 0.613 µM). For the same compound, the IC90 [4, 15] was greater than 50 µg/mL, the IC90 [4, 16] was greater than 50 µg/mL and the IC90 (Rhizoctonia solani (Rs); [17]) was 0.4 µg/mL (≈ 0.613 µM). The IC90 (Rhizoctonia solani (Rs); [18]) was 0.4 µg/mL (≈ 0.613 µM), the IC90 (Septoria tritici (St); [19]) was greater than 50 µg/mL and the IC90 (Septoria tritici (St); [20]) was greater than 50 µg/mL.

For COc1ccc(F)cc1[C@H](Cn1c(=O)n(C(C)(C)C(=O)N2CC(O)C2)c(=O)c2c(C)c(-n3nccn3)sc21)OC1CCOCC1 [Compound I-26, (R)-1-(2-(5-fluoro-2-methoxyphenyl)-2-((tetrahydro-2H-pyran-4-yl)oxy)ethyl)-3-(1-(3-hydroxyazetidin-1-yl)-2-methyl-1-oxopropan-2-yl)-5-methyl-6-(2H-1,2,3-triazol-2-yl)thieno[2,3-d]pyrimidine-2,4(1H,3H)-dione], the IC50 (human (hACC2); Table 2a) was 10 to 40 nM, the IC50 (human (hACC2); Table 2b, additional results) was 10 to 40 nM and the MIC (C. krusei; [6]) was 2.1 to 4 µg/mL (≈ 3.27 to 6.22 µM). The MIC (C. krusei; [7]) was 1.01 to 2 µg/mL (≈ 1.57 to 3.11 µM), the MIC (C. parapsilosis; [8]) was 2.1 to 4 µg/mL (≈ 3.27 to 6.22 µM) and the MIC (C. parapsilosis; [9]) was 1.01 to 2 µg/mL (≈ 1.57 to 3.11 µM). It also gave an IC90 [1, 10] of 10 µg/mL (≈ 15.6 µM), an IC90 [1, 11] greater than 50 µg/mL and an IC90 [2, 5] of 0.4 µg/mL (≈ 0.622 µM). For the same compound, the IC90 [2, 12] was 0.4 µg/mL (≈ 0.622 µM), the IC90 [3, 13] was 2 µg/mL (≈ 3.11 µM) and the IC90 [3, 14] was 2 µg/mL (≈ 3.11 µM). It also gave an IC90 [4, 15] greater than 50 µg/mL, an IC90 [4, 16] greater than 50 µg/mL and an IC90 (Rhizoctonia solani (Rs); [17]) of 10 µg/mL (≈ 15.6 µM). The IC90 (Rhizoctonia solani (Rs); [18]) was greater than 50 µg/mL, the IC90 (Septoria tritici (St); [19]) was greater than 50 µg/mL and the IC90 (Septoria tritici (St); [20]) was greater than 50 µg/mL.
